Series [1] can be described thus: Volume of distribution at steady state in Wistar rat at 1 mg/kg, iv. On the set-up: dose 1 mg/kg, route intravenous. Type of series: ADME, organism-based. As to conditions: in vivo, read-out: Vdss.
For the next series, the system named is Rattus norvegicus. The series can be described thus: AUC in Wistar rat at 1 mg/kg, iv. Format: ADME, organism-based, Plasma. Also on record: dose 1 mg/kg, route intravenous. As to conditions: in vivo.
A short description of series [2]: Oral bioavailability in Wistar rat at 10 mg/kg. Type of series: ADME, organism-based. Particulars: in vivo.
Series [3] can be described thus: Tmax in Wistar rat at 10 mg/kg, po. Format: ADME, organism-based. On the set-up: dose 10 mg/kg, route oral. Particulars: in vivo.
A short description of series [4]: Half life in Wistar rat at 10 mg/kg, po. Type of series: ADME, organism-based. On the set-up: dose 10 mg/kg, route oral. Particulars: in vivo.

SMILES strings stand for the structures.

This note sets out measurements from ChEMBL document CHEMBL1641536, “The identification, and optimisation of hERG selectivity, of a mixed NET/SERT re-uptake inhibitor for the treatment of pain” (Bioorg Med Chem Lett, 2011).

One may read the AUC as the area under the concentration-time curve, a measure of exposure. Low values mean less exposure, high ones more exposure. For orientation: bioavailability means the share of a dose that reaches the circulation, judged against a reference dose that is usually intravenous. By Tmax is commonly meant the time at which the peak concentration occurs. What is called half-life is the time in which the quantity being followed falls by half.

As to `N#Cc1cc(O[C@@H]2C[C@H]3CC[C@@H](C2)N3)cc(-c2ncccc2C#N)c1`, the Vd in series [1] was found to be 6.9 L/kg. The area under the curve (AUC) in the series on Rattus norvegicus stood at 563 ng·h/mL. Further, in series [2], the bioavailability was 34%. Moreover, in series [3], the Tmax was determined as 1.7 h. Besides, the half-life in series [4] is 3.2 h.
